Data taken from US20150269307A1, “TARGET INHIBITION MAP SYSTEM FOR COMBINATION THERAPY DESIGN AND METHODS OF USING SAME” (Texas Tech University System, priority 2014, published 2015).
Read-outs that look alike come from different tables or passages of the source.

Experiments:
[1] = system: human patient-derived xenografts; experiment: Xenograft-derived chemical screen (Supplemental Table 3); format: cell-based; conditions: for IC50: read-out: IC50 Value
Procedure: Three chemical screens were applied to the U23674 primary tumor cell culture. […] The target inhibition profile is a quantified description of the inhibitory properties of the compound on the numerous protein targets preset on the PPTI screen.
To screen the chemical agents, cell cultures were plated in 384 well plates at a seeding density of 2000 cells per well over graded concentrations of the numerous compounds. The chemical concentrations were between 10 nM and […] depending on the activity range of the compounds. The cells were incubated in DMEM supplemented with 1% penicillin streptomycin, and 10% fetal bovine serum for 72 hours. Chemical sensitivity was determined by an MTS cell viability assay after the 72 hour incubation period. The sensitivity responses at the different concentrations were used to determine the chemical IC50 using a hill curve fitting algorithm with variable hill slope coefficients.

DIPG neurospheres [2] = experiment: cells; conditions: for viability at 10 µM: read-out: cell viability (cytocidal)
Procedure: Primary cultures of DIPG neurospheres were added to 384 well plates pre-plated with 60 known drugs in an increasing gradient of concentrations. […] To complete this drug screen, primary cultures of nestin […] 53 deficient DIPG neurospheres were added to plates with 60 known drug samples in an increasing gradient of concentrations.

DIPG neurospheres [3] = experiment: Cellular viability assay (CellTiter-Glo Luminescent Cell Viability Assay); format: cell-based, mouse; conditions: 48 hours
Procedure: A bromodeoxyuridine (BrdU) based cell proliferation ELISA assay kit (Roche) was used for proliferation and processed according to the manufacturer's protocol. […] Viability was measured with CellTiter-Glo Luminescent Cell Viability Assay (# G7572, Promega) per manufacturer's protocol, luminescence values were obtained using Turner Biosystems Modulus Microplate luminometer (model 9300-062). All values are given as mean+/−SD of at least 3 independent experiments.

DIPG-bearing mice = format: in vivo
Procedure: All experiments were performed under the Institutional Animal Care and Use Committee and Institutional Review Board of Duke University approved protocol (A239-10-9 and A214-13-8). Mice were maintained under barrier conditions. Nestin tv-a (Ntv-a) p53^fl/fl mice were injected with DF1 cells expressing RCAS-PDGF-B+RCAS-Cre as described above. Three weeks post injection; […]. Mice were treated with 25 mg/kg BID for 6 doses. Loss of 25% of body weight, lethargy, head tilt, or seizure development was used as euthanasia criteria during the treatment window. Four hours after completion of the 6th dose, treated animals were euthanized and tumor tissue was extracted as described above.
Tumor samples embedded in paraffin were then sectioned on a Leica RM2235 microtome at […] thickness. Immunohistochemistry was performed using Discovery XT (Ventana Medical Systems). Sections were immunostained for cleaved caspase 3 (Asp175) (Cell Signaling #9661) and anti-phospho-histone H3 (Ser10) (Millipore 06-570) to allow for evaluation of apoptosis and proliferation, respectively.
Image analysis was completed using MetaMorph 6.1 software (Universal Imaging Corp.; Downingtown, Pa.) to quantify immunostaining on previously imaged sections for each injected animal. These images were thresholded using the HSI color representation method in the Set Color Threshold window. This method has previously been validated by Maximova et. al.. This is a multidimensional evaluation of the hue, saturation, and intensity of each individual pixel making up an image with a range from 0-255. Once color thresholds had been established that were able to define all nucleated cells and only positively labeled cells, each of the ten images per injected animal were quantified for (per 40× high powered field): total nucleated cell area, total nucleated cell count, total positive cell area, total positive cell count. […] The averages for each animal of each of these parameters were then transferred to GraphPad Prism 5 software (GraphPad Software, San Diego, Calif.) where a Mann-Whitney-U t-test was performed on each analyzed parameter to determine statistical significance.

U23674 cells = experiment: Four-arm orthotropic allograft study, survival; format: in vivo, mouse; conditions: 50 mg/kg OSI-906, 150 mg/kg GDC-0941, oral gavage; compared to vehicle and other arms
Procedure: This engraftment was performed after damaging the right leg via cardiotoxin as previously described. Treatment commenced two days after engraftment. Dosing schedule was once daily by oral gavage up to day 5, at which time dosing was performed every other day. The endpoint for the study and survival analysis was tumor volume=1.4 cc.

[4] = 48 h, read-out: In Vitro Absolute IC50
[5] = Homo sapiens, 60 agent PPTI screen

N#Cc1ccc(COC[C@H]2O[C@@H](n3c(NCc4ccc(Cl)c(Cl)c4)nc4c(N)ncnc43)[C@H](O)[C@@H]2O)cc1 [VER-155008]
IC50 Value ([1]; 60 agent PPTI screen): >conc tested

CC1=C(/C=C/C(C)=C/C=C/C(C)=C/C(=O)Nc2ccc(O)cc2)C(C)(C)CCC1 [fenretinide]
IC50 Value ([1]; 60 agent PPTI screen): >conc tested

Cn1c(=O)n(-c2ccc(C(C)(C)C#N)cc2)c2c3cc(-c4cnc5ccccc5c4)ccc3ncc21 [BEZ235]
IC50 Value ([1]; 60 agent PPTI screen): >conc tested

CC(/C=C/C(=O)NO)=C\[C@@H](C)C(=O)c1ccc(N(C)C)cc1 [trichostatin A]
IC50 ([1]; 60 agent PPTI screen): 5520 nM

CO[C@H]1C[C@@H]2CC[C@@H](C)[C@@](O)(O2)C(=O)C(=O)N2CCCC[C@H]2C(=O)O[C@H]([C@H](C)C[C@@H]2CC[C@@H](OC(=O)C(C)(CO)CO)[C@H](OC)C2)CC(=O)[C@H](C)/C=C(\C)[C@@H](O)[C@@H](OC)C(=O)[C@H](C)C[C@H](C)/C=C/C=C/C=C/1C [temsirolimus]
IC50 Value ([1]; 60 agent PPTI screen): >conc tested

COC1=CC(c2cc3ccccc3[nH]2)=N/C1=C\c1[nH]c(C)cc1C [Obatoclax]
IC50 (DIPG neurospheres [2]; [4]): 159 nM | viability at 10 µM (DIPG neurospheres [2]): < 15%

CNC(=O)CN1CCC(Oc2cc3c(Nc4cccc(Cl)c4F)ncnc3cc2OC)CC1 [AZD-8931]
IC50 Value ([1]; 60 agent PPTI screen): >conc tested

CS(=O)(=O)c1ccc(C(=O)Nc2ccc(Cl)c(-c3ccccn3)c2)c(Cl)c1 [vismodegib]
IC50 Value ([1]; 60 agent PPTI screen): >conc tested

NC(=O)c1ccc(-c2nc(-c3ccc4c(c3)OCO4)c(-c3ccccn3)[nH]2)cc1 [SB-431542]
IC50 Value ([1]; 60 agent PPTI screen): >conc tested

CN(C)CC[C@H](CSc1ccccc1)Nc1ccc(S(=O)(=O)NC(=O)c2ccc(N3CCN(Cc4ccccc4-c4ccc(Cl)cc4)CC3)cc2)cc1[N+](=O)[O-] [ABT-737]
IC50 [1, 5]: 2660 nM

COc1cc(Nc2ncc3c(n2)-c2ccc(Cl)cc2C(c2c(F)cccc2OC)=NC3)ccc1C(=O)O [alisertib]
IC50 Value ([1]; 60 agent PPTI screen): >conc tested

CCOc1cc(/C=C2/C(=O)N(c3ccccc3)N=C2C)cc(Cl)c1OCC(=O)OC [SJ-172550]
IC50 Value ([1]; 60 agent PPTI screen): >conc tested

COc1cc2nc(N3CCCN(C)CC3)nc(NC3CCN(Cc4ccccc4)CC3)c2cc1OC [BIX-01294]
IC50 [1, 5]: 6810 nM | IC50 (DIPG neurospheres [2]; [4]): 3950 nM | viability at 10 µM (DIPG neurospheres [2]): < 15%

COc1cc(Nc2ncc(F)c(Nc3ccc4c(n3)N(COP(=O)(O)O)C(=O)C(C)(C)O4)n2)cc(OC)c1OC [fostamatinib]
IC50 [1, 5]: 5150 nM

CS(=O)(=O)CCNCc1ccc(-c2ccc3ncnc(Nc4ccc(OCc5cccc(F)c5)c(Cl)c4)c3c2)o1 [lapatinib]
IC50 Value ([1]; 60 agent PPTI screen): >conc tested

Nc1ccccc1NC(=O)c1ccc(CNC(=O)OCc2cccnc2)cc1 [entinostat]
IC50 [1, 5]: 1790 nM

COc1cc2c(Nc3ccc(Br)cc3F)ncnc2cc1OCC1CCN(C)CC1 [vandetanib]
IC50 [1, 5]: 3040 nM

CCCC(=O)[O-].[Na+] [sodium butyrate]
IC50 Value ([1]; 60 agent PPTI screen): >conc tested

CC(C)(C)c1cnc(CSc2cnc(NC(=O)C3CCNCC3)s2)o1 [SNS-032]
IC50 Value ([1]; 60 agent PPTI screen): >conc tested | IC50 (DIPG neurospheres [2]; [4]): 505 nM | viability at 10 µM (DIPG neurospheres [2]): < 15%

CCNC(=O)c1noc(-c2cc(C(C)C)c(O)cc2O)c1-c1ccc(CN2CCOCC2)cc1 [AUY922]
IC50 [1, 5]: 1030 nM

CN1CC[C@H](c2c(O)cc(O)c3c(=O)cc(-c4ccccc4Cl)oc23)[C@H](O)C1 [alvocidib]
IC50 Value ([1]; 60 agent PPTI screen): >conc tested

CN(c1ncccc1CNc1nc(Nc2ccc3c(c2)CC(=O)N3)ncc1C(F)(F)F)S(C)(=O)=O [PF-562271]
IC50 Value ([1]; 60 agent PPTI screen): >conc tested

CC(C)C[C@H](NC(=O)[C@H](Cc1ccccc1)NC(=O)c1cnccn1)B(O)O [bortezomib]
IC50 [1, 5]: 821 nM

C[C@@H](Oc1cc(-c2cnn(C3CCNCC3)c2)cnc1N)c1c(Cl)ccc(F)c1Cl [Crizontinib, crizotinib]
IC50 [1, 5]: 5140 nM | IC50 (DIPG neurospheres [2]; [4]): 6230 nM | viability at 10 µM (DIPG neurospheres [2]): < 15%

C[C@@]1(C(=O)Nc2ccc(F)nc2)CCCN1c1nc(Nc2cc(C3CC3)n[nH]2)c2cccn2n1 [BMS-754807]
concentration giving significant reduction of viability (DIPG neurospheres [3]): ≥ 0.1 µM | apoptosis, cleaved caspase 3 positive cells (DIPG-bearing mice; 25 mg/kg BID for 6 doses, intraperitoneal, mean, p=0.0435 vs vehicle): 1.063+/−0.1925 percentage of cell per high powered filed | DIPG proliferation, phosphorylated histone-3 (serine 10) positive cells (DIPG-bearing mice; 25 mg/kg BID for 6 doses, intraperitoneal, mean, p=0.8421 vs vehicle): 9.632+/−2.827 percentage of cell per high powered filed | blood brain barrier crossing (DIPG-bearing mice; mouse, in vivo): able to cross the blood brain barrier | tolerability in mice undergoing treatment (DIPG-bearing mice; mouse, in vivo): well tolerated | IC50 ([1]; Homo sapiens): 1730 nM | IC50 (DIPG neurospheres [2]; [4]): 97.4 nM | IC50 (DIPG neurospheres [2]; Mus musculus, read-out: in vitro IC50 in the high throughput drug screen): 90 nM | viability at 10 µM (DIPG neurospheres [2]): < 15%

CCN(CC)CCNC(=O)c1c(C)[nH]c(/C=C2\C(=O)Nc3ccc(F)cc32)c1C [Sunitinib]
IC50 (DIPG neurospheres [2]; [4]): 6920 nM | viability at 10 µM (DIPG neurospheres [2]): < 15%

CC1=C(/C=C/C(C)=C/C=C/C(C)=C/C(=O)O)C(C)(C)CCC1 [tretinoin]
IC50 Value ([1]; 60 agent PPTI screen): >conc tested

Cc1[nH]c2ccccc2c1CCNCc1ccc(/C=C/C(=O)NO)cc1 [panobinostat]
IC50 [1, 5]: 245 nM

CS(=O)(=O)N1CCN(Cc2cc3nc(-c4cccc5[nH]ncc45)nc(N4CCOCC4)c3s2)CC1 [GDC-0941]
survival of mice (endpoint tumor volume 1.4 cc) (U23674 cells): no better than survival of mice only treated with vehicle

CCOc1cc2ncc(C#N)c(Nc3ccc(F)c(Cl)c3)c2cc1NC(=O)/C=C/CN(C)C [pelitinib]
IC50 Value ([1]; 60 agent PPTI screen): >conc tested

Cc1cn(-c2cc(NC(=O)c3ccc(C)c(Nc4nccc(-c5cccnc5)n4)c3)cc(C(F)(F)F)c2)cn1 [nilotinib]
IC50 Value ([1]; 60 agent PPTI screen): >conc tested

C[C@]1(c2nc3c(C(N)=O)cccc3[nH]2)CCCN1 [veliparib]
IC50 Value ([1]; 60 agent PPTI screen): >conc tested

CNC(=O)c1cc(Oc2ccc(NC(=O)Nc3ccc(Cl)c(C(F)(F)F)c3)cc2)ccn1 [sorafenib]
IC50 [1, 5]: 6130 nM

CCN(CC)CCCC(C)Nc1c2ccc(Cl)cc2nc2ccc(OC)cc12 (stereo not drawn) [quinacrine]
IC50 [1, 5]: 4920 nM

Cn1cc(C2=C(c3cn(C4CCN(Cc5ccccn5)CC4)c4ccccc34)C(=O)NC2=O)c2ccccc21 [enzastaurin]
IC50 Value ([1]; 60 agent PPTI screen): >conc tested

NC1(c2ccc(-c3nc4ccn5c(=O)[nH]nc5c4cc3-c3ccccc3)cc2)CCC1 [MK-2206]
IC50 [1, 5]: 5490 nM

Nc1cccc2c1CN(C1CCC(=O)NC1=O)C2=O (stereo not drawn) [lenalidomide]
IC50 Value ([1]; 60 agent PPTI screen): >conc tested

CC(C)C[C@H](NC(=O)[C@H](CCc1ccccc1)NC(=O)CN1CCOCC1)C(=O)N[C@@H](Cc1ccccc1)C(=O)N[C@@H](CC(C)C)C(=O)[C@@]1(C)CO1 [Carfilzomib]
IC50 [1, 5]: 860 nM | IC50 (DIPG neurospheres [2]; [4]): 834 nM | viability at 10 µM (DIPG neurospheres [2]): < 15%

COc1nc(C)cnc1NS(=O)(=O)c1cccnc1-c1ccc(-c2nnco2)cc1 [zibotentan]
IC50 Value ([1]; 60 agent PPTI screen): >conc tested

CN(C)c1ccccc1CN1CCCN(Cc2ccccc2N(C)C)C1c1ccncc1 [GANT61]
IC50 ([1]; 60 agent PPTI screen): 7380 nM

COc1cc2c(Oc3ccc4[nH]c(C)cc4c3F)ncnc2cc1OCCCN1CCCC1 [cediranib]
IC50 Value ([1]; 60 agent PPTI screen): >conc tested

CC(C)(C(=O)NCC(F)(F)C(F)(F)F)C(=O)N[C@@H]1C(=O)Nc2ccccc2-c2ccccc21 [RO4929097]
IC50 Value ([1]; 60 agent PPTI screen): >conc tested

Cc1cc(Nc2cc(N3CCN(C)CC3)nc(Sc3ccc(NC(=O)C4CC4)cc3)n2)[nH]n1 [tozasertib]
IC50 Value ([1]; 60 agent PPTI screen): >conc tested

CC(=O)N[C@@H](CS)C(=O)O [NAC, N-acetyl cysteine]
IC50 Value ([1]; 60 agent PPTI screen): >conc tested

CC(C)[C@H]1C(=O)N[C@@H](CCCN=C(N)N)C(=O)NCC(=O)N[C@@H](CC(=O)O)C(=O)N[C@H](Cc2ccccc2)C(=O)N1C [cilengitide]
IC50 Value ([1]; 60 agent PPTI screen): >conc tested
